Source: paper PMC9013686, “Inter-individual variation in chlorpyrifos toxicokinetics characterized by physiologically based kinetic (PBK) and Monte Carlo simulation comparing human liver microsome and Supersome™ cytochromes P450 (CYP)-specific kinetic data as model input” (Archives of Toxicology, 2022)
Several values for one entry are separate records, joined by “and”; a condition that tells them apart may be missing. Equal values may be shown once. Read-outs that look alike come from different tables or passages of the source.

Key:
[1] = system: rat liver microsomes; settings: bioactivation of CPF, biphasic kinetics; ref Ma and Chambers ([1995]); cited from earlier work
[2] = cited from earlier work
[3] = target: T1, CYP1A2 (Homo sapiens, UniProt P05177); assay: Supersome CYP1A2 kinetic incubations; type: in vitro ADME; parameters: purchased Corning (Amsterdam, The Netherlands); host or cells: baculovirus-transfected insect cells; settings: for Scaled Vmax(app): CYP1A2 scaled to whole liver by Eq. 3; for Vmax (app) / Km: Supersome CYP1A2; for Km: human, recombinant CYP1A2 Supersomes, pH 7.4, Km(app)
T1 sequence (P05177 2-516 limits assumed): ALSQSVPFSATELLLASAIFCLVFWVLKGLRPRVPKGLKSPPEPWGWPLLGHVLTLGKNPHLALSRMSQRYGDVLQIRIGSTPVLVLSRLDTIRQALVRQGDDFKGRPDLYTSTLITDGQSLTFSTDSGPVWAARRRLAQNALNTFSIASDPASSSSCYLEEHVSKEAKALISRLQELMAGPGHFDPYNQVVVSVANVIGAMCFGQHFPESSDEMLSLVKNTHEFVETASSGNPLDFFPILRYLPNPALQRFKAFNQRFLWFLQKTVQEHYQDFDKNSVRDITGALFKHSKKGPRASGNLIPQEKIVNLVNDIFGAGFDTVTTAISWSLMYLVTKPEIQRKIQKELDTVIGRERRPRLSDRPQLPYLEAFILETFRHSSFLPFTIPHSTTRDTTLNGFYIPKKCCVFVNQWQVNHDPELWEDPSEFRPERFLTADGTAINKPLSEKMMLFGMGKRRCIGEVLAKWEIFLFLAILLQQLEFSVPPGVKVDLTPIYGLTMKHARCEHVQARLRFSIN
Protocol: (§1) The final incubations were carried out in 50 mM Tris–HCl (pH 7.4) containing 5 mM MgCl2, 1 mM EDTA (as an A-esterase PON1 inhibitor) (Bizoń and Milnerowicz [2018]), 50 µM iso-OMPA (as a B-esterases inhibitor) (Lane et al. [2006]), Supersome™ isoform (at final concentration of 0.005 nmol CYP/ml for 1A2, 0.001 nmol CYP/ml for 2B6, 0.01 nmol CYP/ml for 2C19, and 0.01 nmol CYP/ml for 3A4) and CPF at different final concentrations (0.05, 0.1, 0.25, 0.5, 1, 5 and 10 µM for 1A2, 0.05, 0.1, 0.25, 0.5, 1, 5 10 and 25 µM for 2B6, 1, 2.5, 5, 10, 25 and 50 µM for 2C19, and 0.5, 1, 2.5, 5, 10, 25 and 50 µM for 3A4), which were added from 100 times concentrated stock solutions in ACN. After 1 min preincubation in a 37 °C water bath, 5 µl NADPH (final concentration 1 mM) was added to the incubation system. Control incubations were performed by replacing NADPH with the same amount of Tris–HCl (pH 7.4). The total volume of the incubation mixtures was 200 µl. The incubations lasted for 2 min at 37 °C and were terminated by addition of 50 µl ice cold ACN and subsquently put on ice. After that, samples were centrifuged at 16,000 g (4 ℃) for 5 min and supernatants of samples were separated into two equal portions for Ultra-Performance Liquid Chromatography-Photodiode Array (UPLC-PDA) and Liquid Chromatography Mass Spectrometry (LC–MS/MS) analysis, respectively.
(§2) To normalize for differences in intrinsic CYP activity between Supersome™ and pooled HLMs and enable scaling of the activities to the in vivo situation, CYP-specific ISEF values need to be established. […] The incubation method was similar as used for the CPF kinetic incubation assay described above, except that certain incubation conditions were replaced by the conditions listed in Table 1. The samples obtained were analyzed by UPLC-PDA for acetaminophen, 4-hydroxymephenytoin, and 6β-hydroxytestosterone formation catalyzed by 1A2, 2C19 and 3A4, or LC–MS/MS for (±)-hydroxybupropion formation catalyzed by 2B6.
(§3) As mentioned before, the in vitro apparent kinetic parameters (Vmax and Km) for pathway 1 and pathway 2 in the HLM-based approach, and pathway 3 in both approaches were all obtained directly from reported studies using pooled HLMs (Buratti et al. [2003]; Sams et al. [2004]; Zhao et al. [2019]). Therefore, no extra calculations were required to define these parameters. The kinetic parameters for the ISEF calculation, pathway 1 and 2 in the Supersome™-based approach, and pathway 4 in both approaches (25 individuals) were all obtained by fitting the experimental data to the Michaelis–Menten model using GraphPad (GraphPad Prism 5.0 software, San Diego, CA, USA). It should be noted that the kinetic parameters for pathway 4 used in the two approaches were calculated as mean of the kinetic parameters (Vmax and Km) obtained using 25 individual HP samples (with correction for total protein concentration of each plasma sample).
(§4) The in vivo Kmi values were assumed to be equal to the apparent Kmi(app) values (µM) obtained in the in vitro incubations, while the in vivo Vmaxi for each CYP isoform was derived from their corresponding apparent CYP isoform Vmaxi(app) (pmol/min/pmolCYP) using Eq. 3:3 Vmaxi=Vmaxiapp×CYPiabundance×ISEF×60×MPL×1000×VL/1,000,000,

[4] = target: T2, CYP2B6 (Homo sapiens, UniProt P20813); assay: Supersome CYP2B6 kinetic incubations; type: in vitro ADME; parameters: purchased Corning (Amsterdam, The Netherlands); host or cells: baculovirus-transfected insect cells; settings: for Scaled Vmax(app): CYP2B6 scaled to whole liver by Eq. 3; for Vmax (app) / Km: Supersome CYP2B6; for Km: human, recombinant CYP2B6 Supersomes, pH 7.4, Km(app)
T2 sequence (P20813 1-491): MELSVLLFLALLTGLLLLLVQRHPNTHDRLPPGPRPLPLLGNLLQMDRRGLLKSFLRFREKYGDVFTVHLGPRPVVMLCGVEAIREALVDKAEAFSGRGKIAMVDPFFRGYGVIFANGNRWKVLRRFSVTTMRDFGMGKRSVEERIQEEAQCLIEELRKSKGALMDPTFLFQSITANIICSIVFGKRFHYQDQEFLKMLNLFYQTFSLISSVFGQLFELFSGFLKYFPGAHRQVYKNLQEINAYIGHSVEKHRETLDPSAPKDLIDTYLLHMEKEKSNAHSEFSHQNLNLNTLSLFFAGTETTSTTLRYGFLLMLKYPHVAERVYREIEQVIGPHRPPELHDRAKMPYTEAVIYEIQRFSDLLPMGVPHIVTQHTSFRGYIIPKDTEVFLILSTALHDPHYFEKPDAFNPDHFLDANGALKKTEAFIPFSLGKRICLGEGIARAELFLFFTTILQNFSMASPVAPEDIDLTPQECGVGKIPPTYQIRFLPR
Protocol: as §1, §2, §3, §4

[5] = Pathway 1 (bioactivation of CPF to CPO)
[6] = Pathway 2 (detoxification of CPF to TCPy)

Structure (SMILES): CCOP(=S)(OCC)Oc1nc(Cl)c(Cl)cc1Cl [CPF, Chlorpyrifos]
- Km of high affinity phase lower than that of low affinity phase [1]: 50 fold
- ka (absorption rate constant) ([2]; PBK model input, mean, ref Bouchard et al. ([2005])): 0.46 h⁻¹
- fa (fractional absorption), mean ([2]; mean of the reported fa values, ref Timchalk et al. ([2002]), Nolan et al. ([1984])): 0.462 and 0.46
- fa (fractional absorption) ([2]; ref Nolan et al. ([1984])): 0.7
- fa (fractional absorption) ([2]; ref Timchalk et al. ([2002])): 0.224
- Scaled Vmax(app) ([3]; Pathway 1 (CPF to CPO)): 51.81 µmol/h
- Vmax (app) ([3]; Pathway 1 (CPF to CPO)): 3.96 pmol/min/pmolCYP
- Scaled Vmax(app) ([3]; Pathway 2 (CPF to TCPy)): 38.73 µmol/h
- Vmax (app) ([3]; Pathway 2 (CPF to TCPy)): 2.96 pmol/min/pmolCYP
- Km [3, 5]: 0.61 µM
- Km [3, 6]: 1.25 µM
- Scaled Vmax(app) ([4]; Pathway 1 (CPF to CPO)): 203.94 µmol/h
- Vmax (app) ([4]; Pathway 1 (CPF to CPO)): 7.76 pmol/min/pmolCYP
- Scaled Vmax(app) ([4]; Pathway 2 (CPF to TCPy)): 144.28 µmol/h
- Vmax (app) ([4]; Pathway 2 (CPF to TCPy)): 5.49 pmol/min/pmolCYP
- Km [4, 5]: 0.14 µM
- Km [4, 6]: 1.28 µM
